Converted amounts (≈) assume the structure as drawn. Read-outs that look alike come from different tables or passages of the source.
Experiments:
Type in all cases: cell-based
[1] = tested on: Trichophyton mentagrophytes; test: Broth microdilution MIC (CLSI M38-A2, modified)
Procedure: (§1) To evaluate its antifungal activity, […] of dermatophytes were tested: two clinical strains of Trichophyton rubrum (Tr1 and Tr2), Trichophyton rubrum ATCC MYA 3108, two clinical strains of Trichophyton mentagrophytes (Tm1 and Tm2), and Trichophyton mentagrophytes ATCC 40131 (Tm3). The microorganisms were obtained from the collection of the Clinical Mycology Laboratory of the Department of Clinical Analyses at the School of Pharmaceutical Sciences of Universidade Estadual Paulista (UNESP). The strains were cultivated on Sabouraud dextrose agar (Difco, BD Biosciences) and incubated at 28°C for 7-15 days. For all experiments, the strains were cultivated on Potato Dextrose Agar (Difco, BD Biosciences) and incubated at 28°C as described above or until sporulation. The dilution of the synthetic compounds was performed with DMSO (Synth, Diadema, Sao Paulo, Brazil) as described by Scorzoni et al.. […] The antifungal drugs were diluted according to the CLSI […]-A2 document. Stock solutions of Fluconazole (Sigma-Aldrich, St. Louis, MO, USA) were prepared, considering its power. Serial twofold dilutions were prepared according to the recommendations of Zhang and collaborators, with some modifications. The antifungal activity tests were performed using the broth microdilution method as described in […]-A2, a document produced by the Clinical and Laboratory Standards Institute (CLSI, 2008), with modifications. The medium used was RPMI 1640 with L-glutamine (Sigma-Aldrich, St. Louis, MO, USA) buffered to pH 7.0 with 0.165 M morpholinepropanesulfonic acid (MOPS) (Sigma-Aldrich, St. Louis, MO, USA), supplemented with 2% glucose. […] The suspension of conidia was then transferred to small sterile test tubes where they remained for 40 minutes to separate the microconidia, which were lighter and therefore present in the supernatant. […] These suspensions were diluted in RPMI 1640 (Sigma-Aldrich, St. […] Positive (100 μL of RPMI medium with 100 μL of inoculum) and negative (200 μL of RPMI) controls were included in all experiments. The plates were incubated with agitation at 35°C for 7 days. The MIC reading was performed by spectrophotometry at 490 nm.

[2] = tested on: Trichophyton rubrum; test: Broth microdilution MIC (CLSI M38-A2, modified)
Procedure: as §1

[3] = tested on: Trichophyton mentagrophytes; test: Minimum fungicide concentration (MFC)
Procedure: (§2) A qualitative analysis of the fungal viability was performed by transferring a portion of the wells to a plate with Sabouraud (Difco, BD Biosciences) medium and incubating it at 35°C for the time determined for each fungal agent. […] A visual reading was performed to confirm the death or growth inhibition provided by fluconazole and the sixteen semisynthetic substances derived from protocatechuic acid.

[4] = tested on: Trichophyton rubrum; test: Minimum fungicide concentration (MFC)
Procedure: as §2

[5] = Tm1, clinical isolate, 35°C, 7 days
[6] = Tm2, clinical isolate, 35°C, 7 days
[7] = Tm3, T. mentagrophytes ATCC 40131, 35°C, 7 days
[8] = Tr1, T. rubrum clinical isolate, 35°C, 7 days
[9] = Tr2, T. rubrum clinical isolate, 35°C, 7 days
[10] = Tr3, T. rubrum ATCC MYA 3108, 35°C, 7 days
[11] = Tm3, T. mentagrophytes ATCC 40131
[12] = Tr1, T. rubrum clinical isolate
[13] = Tr2, T. rubrum clinical isolate

| Structure (SMILES) | MIC [1, 5] [µg/mL] | MIC [1, 6] [µg/mL] | MIC [1, 7] [µg/mL] | MIC [2, 8] [µg/mL] | MIC [2, 9] [µg/mL] | MIC [2, 10] [µg/mL] | MFC ([3]; Tm1, clinical isolate) [µg/mL] | MFC ([3]; Tm2, clinical isolate) [µg/mL] | MFC [3, 11] [µg/mL] | MFC [4, 12] [µg/mL] | MFC [4, 13] [µg/mL] | MFC ([4]; Tr3, T. rubrum ATCC MYA 3108) [µg/mL] | also measured |
| --- | --- | --- | --- | --- | --- | --- | --- | --- | --- | --- | --- | --- | --- |
| CCOC(=O)c1ccc(O)c(O)c1 [Protocatechuate ethyl] | 31.2 (≈ 171 µM) | 31.2 (≈ 171 µM) | 31.2 (≈ 171 µM) | 31.2 (≈ 171 µM) | 31.2 (≈ 171 µM) | 31.2 (≈ 171 µM) | 62.5 (≈ 343 µM) | 31.2 (≈ 171 µM) | 125 (≈ 686 µM) | 31.2 (≈ 171 µM) | 31.2 (≈ 171 µM) | 31.2 (≈ 171 µM) | – |
| CCCCCCCCCCCCCCCCCCOC(=O)c1ccc(O)c(O)c1 [Protocatechuate octadecyl] | > 250 | > 250 | > 250 | > 250 | > 250 | > 250 | > 250 | > 250 | > 250 | > 250 | > 250 | > 250 | – |
| O=C(O)c1ccc(O)c(O)c1 [Acid protocatechuic, Protocatechuic acid (3,4-dihydroxybenzoic)] | – | 250 (≈ 1620 µM) | – | – | 250 (≈ 1620 µM) | 250 (≈ 1620 µM) | – | > 250 | – | – | 250 (≈ 1620 µM) | 250 (≈ 1620 µM) | MIC ([1]; Trichophyton mentagrophytes, 168 h): 250 µg/mL (≈ 1620 µM); MIC ([1]; Trichophyton mentagrophytes, ATCC40131, 168 h): 125 µg/mL (≈ 811 µM); MIC ([2]; Trichophyton rubrum, 168 h): 250 µg/mL (≈ 1620 µM); MFC ([3]; Trichophyton mentagrophytes): > 250 µg/mL; MFC ([3]; Trichophyton mentagrophytes, ATCC40131): 125 µg/mL (≈ 811 µM); MFC ([4]; Trichophyton rubrum): 250 µg/mL (≈ 1620 µM) |
| CCCCCCCCCCOC(=O)c1ccc(O)c(O)c1 [Protocatechuate decyl] | 7.8 (≈ 26.5 µM) | 3.9 (≈ 13.2 µM) | 3.90 (≈ 13.2 µM) | 3.9 (≈ 13.2 µM) | 3.9 (≈ 13.2 µM) | 3.90 (≈ 13.2 µM) | 7.8 (≈ 26.5 µM) | 3.9 (≈ 13.2 µM) | 15.6 (≈ 53 µM) | 3.9 (≈ 13.2 µM) | 3.9 (≈ 13.2 µM) | 7.8 (≈ 26.5 µM) | – |
| COC(=O)c1ccc(O)c(O)c1 [Protocatechuate methyl] | 62.5 (≈ 372 µM) | 62.5 (≈ 372 µM) | 31.2 (≈ 186 µM) | 62.5 (≈ 372 µM) | 31.2 (≈ 186 µM) | 31.2 (≈ 186 µM) | 250 (≈ 1490 µM) | 62.5 (≈ 372 µM) | 62.5 (≈ 372 µM) | 62.5 (≈ 372 µM) | 31.2 (≈ 186 µM) | 62.5 (≈ 372 µM) | – |
| CCCCOC(=O)c1ccc(O)c(O)c1 [Protocatechuate butyl] | 7.80 (≈ 37.1 µM) | 15.6 (≈ 74.2 µM) | 15.6 (≈ 74.2 µM) | 15.6 (≈ 74.2 µM) | 7.8 (≈ 37.1 µM) | 7.8 (≈ 37.1 µM) | 62.5 (≈ 297 µM) | 15.6 (≈ 74.2 µM) | 15.6 (≈ 74.2 µM) | 15.6 (≈ 74.2 µM) | 7.8 (≈ 37.1 µM) | 7.8 (≈ 37.1 µM) | – |
| CCCOC(=O)c1ccc(O)c(O)c1 [Protocatechuate propyl] | 15.6 (≈ 79.5 µM) | 62.5 (≈ 319 µM) | 15.6 (≈ 79.5 µM) | 15.6 (≈ 79.5 µM) | 31.2 (≈ 159 µM) | 31.2 (≈ 159 µM) | 62.5 (≈ 319 µM) | 62.5 (≈ 319 µM) | 31.2 (≈ 159 µM) | 15.6 (≈ 79.5 µM) | 31.2 (≈ 159 µM) | 31.2 (≈ 159 µM) | – |
| CC(=O)Oc1ccc(C(=O)O)cc1OC(C)=O [Acid 3.4 diacetoxybenzoic, 3,4-diacetoxybenzoic acid] | – | – | – | – | – | – | – | – | – | – | – | – | MIC ([1]; Trichophyton mentagrophytes, 168 h, Tm1, clinical isolate, 35°C, 7 days, read-out: MIC): 250 µg/mL (≈ 1050 µM); MIC ([1]; Trichophyton mentagrophytes, 168 h, Tm2, clinical isolate, 35°C, 7 days, read-out: MIC): > 250 µg/mL; MIC ([1]; Trichophyton mentagrophytes, ATCC40131, 168 h, Tm3, T. mentagrophytes ATCC 40131, 35°C, 7 days, read-out: MIC): 250 µg/mL (≈ 1050 µM); MIC ([2]; Trichophyton rubrum, 168 h, Tr1, T. rubrum clinical isolate, 35°C, 7 days, read-out: MIC): 250 µg/mL (≈ 1050 µM); MIC ([2]; Trichophyton rubrum, 168 h, Tr2, T. rubrum clinical isolate, 35°C, 7 days, read-out: MIC): > 250 µg/mL; MIC ([2]; Trichophyton rubrum, 168 h, Tr3, T. rubrum ATCC MYA 3108, 35°C, 7 days, read-out: MIC): > 250 µg/mL; MFC ([3]; Trichophyton mentagrophytes, ATCC40131, Tm3, T. mentagrophytes ATCC 40131, read-out: MFC): 250 µg/mL (≈ 1050 µM); MFC ([3]; Trichophyton mentagrophytes, Tm1, clinical isolate, read-out: MFC): 250 µg/mL (≈ 1050 µM); MFC ([3]; Trichophyton mentagrophytes, Tm2, clinical isolate, read-out: MFC): > 250 µg/mL; MFC ([4]; Trichophyton rubrum, Tr1, T. rubrum clinical isolate, read-out: MFC): 250 µg/mL (≈ 1050 µM); MFC ([4]; Trichophyton rubrum, Tr2, T. rubrum clinical isolate, read-out: MFC): > 250 µg/mL; MFC ([4]; Trichophyton rubrum, Tr3, T. rubrum ATCC MYA 3108, read-out: MFC): > 250 µg/mL |
| CCCCCCCCCCCCCCCCOC(=O)c1ccc(O)c(O)c1 [Protocatechuate hexadecyl] | > 250 | > 250 | > 250 | > 250 | > 250 | > 250 | > 250 | > 250 | > 250 | > 250 | > 250 | > 250 | – |
| CCCCCCCCCCCCOC(=O)c1ccc(O)c(O)c1 [Protocatechuate dodecyl] | 250 (≈ 775 µM) | 62.5 (≈ 194 µM) | 31.2 (≈ 96.8 µM) | > 250 | 125 (≈ 388 µM) | > 250 | 250 (≈ 775 µM) | 62.5 (≈ 194 µM) | 62.5 (≈ 194 µM) | > 250 | 125 (≈ 388 µM) | 250 (≈ 775 µM) | – |
| CCCCCCCCCCCCCCOC(=O)c1ccc(O)c(O)c1 [Protocatechuate tetradecyl] | > 250 | 125 (≈ 357 µM) | > 250 | > 250 | 125 (≈ 357 µM) | > 250 | > 250 | 250 (≈ 713 µM) | > 250 | > 250 | 125 (≈ 357 µM) | > 250 | – |
